Assay results as given in ChEMBL document CHEMBL1909046, “DrugMatrix in vitro pharmacology data”.

Legend:
[1] = molecular target: T1, Type-2 angiotensin II receptor (Homo sapiens, UniProt P50052); format: cell-based; settings: cho-k1
T1 sequence (P50052 whole entry): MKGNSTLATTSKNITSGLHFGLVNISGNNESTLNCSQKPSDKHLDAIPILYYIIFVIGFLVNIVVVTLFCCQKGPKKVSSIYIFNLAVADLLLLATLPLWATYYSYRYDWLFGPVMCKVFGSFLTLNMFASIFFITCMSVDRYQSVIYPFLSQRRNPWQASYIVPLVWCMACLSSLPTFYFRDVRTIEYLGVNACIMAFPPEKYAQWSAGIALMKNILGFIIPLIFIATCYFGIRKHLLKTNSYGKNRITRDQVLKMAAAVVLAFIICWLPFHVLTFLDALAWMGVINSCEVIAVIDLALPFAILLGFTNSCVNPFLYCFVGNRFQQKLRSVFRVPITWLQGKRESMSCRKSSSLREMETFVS

[2] = molecular target: 5-hydroxytryptamine receptor 2B (Homo sapiens, UniProt P41595); format: cell membranes, CHO-K1, Membrane; settings: cho-k1
[3] = molecular target: T2, Nitric oxide synthase, inducible (Mus musculus, UniProt P29477); design: species or system Escherichia coli;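 further: inhibition of iNOS enzyme activity measured with L-arginine as substrate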
T2 sequence (P29477 whole entry): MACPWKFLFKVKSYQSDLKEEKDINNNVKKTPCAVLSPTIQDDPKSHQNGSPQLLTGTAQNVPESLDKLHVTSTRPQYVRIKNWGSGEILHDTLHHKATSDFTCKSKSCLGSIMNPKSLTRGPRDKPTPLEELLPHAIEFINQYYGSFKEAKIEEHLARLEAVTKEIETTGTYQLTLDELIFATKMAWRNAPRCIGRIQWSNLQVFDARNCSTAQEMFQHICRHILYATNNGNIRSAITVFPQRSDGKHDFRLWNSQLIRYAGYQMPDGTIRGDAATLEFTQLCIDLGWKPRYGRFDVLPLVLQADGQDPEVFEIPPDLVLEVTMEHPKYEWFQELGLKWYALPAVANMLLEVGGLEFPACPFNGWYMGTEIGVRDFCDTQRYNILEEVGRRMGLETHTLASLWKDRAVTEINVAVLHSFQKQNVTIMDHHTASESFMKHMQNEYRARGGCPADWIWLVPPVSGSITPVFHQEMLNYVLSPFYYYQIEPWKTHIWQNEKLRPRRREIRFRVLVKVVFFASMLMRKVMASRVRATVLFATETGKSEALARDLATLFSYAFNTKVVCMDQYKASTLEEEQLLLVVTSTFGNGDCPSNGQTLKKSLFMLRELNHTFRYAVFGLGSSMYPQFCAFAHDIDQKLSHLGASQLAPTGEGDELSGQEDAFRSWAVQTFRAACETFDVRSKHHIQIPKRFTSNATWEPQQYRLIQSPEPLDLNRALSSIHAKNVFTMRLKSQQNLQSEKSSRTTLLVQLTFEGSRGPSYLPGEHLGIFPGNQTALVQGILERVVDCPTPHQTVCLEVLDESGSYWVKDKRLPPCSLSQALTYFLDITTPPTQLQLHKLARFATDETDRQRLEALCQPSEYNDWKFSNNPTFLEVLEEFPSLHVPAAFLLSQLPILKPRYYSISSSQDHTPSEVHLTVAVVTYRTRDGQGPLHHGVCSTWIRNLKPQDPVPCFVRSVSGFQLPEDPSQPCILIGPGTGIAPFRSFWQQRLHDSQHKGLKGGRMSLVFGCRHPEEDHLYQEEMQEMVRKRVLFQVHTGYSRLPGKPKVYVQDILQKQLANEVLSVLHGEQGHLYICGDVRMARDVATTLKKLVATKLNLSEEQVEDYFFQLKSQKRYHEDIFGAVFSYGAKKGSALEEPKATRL

[4] = molecular target: Matrix metalloproteinase-9 (Homo sapiens, UniProt P14780); assay: biochemical; format: cell-based;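 further: inhibition of isolated MMP-9 enzyme activity toward a synthetic peptide substrate, from the DrugMatrix protease screening panel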
[5] = molecular target: T3, 5-hydroxytryptamine receptor 1A (Rattus norvegicus, UniProt P19327); format: cell membranes, CHO-K1, Membrane; settings: cho-k1
T3 sequence (P19327 whole entry): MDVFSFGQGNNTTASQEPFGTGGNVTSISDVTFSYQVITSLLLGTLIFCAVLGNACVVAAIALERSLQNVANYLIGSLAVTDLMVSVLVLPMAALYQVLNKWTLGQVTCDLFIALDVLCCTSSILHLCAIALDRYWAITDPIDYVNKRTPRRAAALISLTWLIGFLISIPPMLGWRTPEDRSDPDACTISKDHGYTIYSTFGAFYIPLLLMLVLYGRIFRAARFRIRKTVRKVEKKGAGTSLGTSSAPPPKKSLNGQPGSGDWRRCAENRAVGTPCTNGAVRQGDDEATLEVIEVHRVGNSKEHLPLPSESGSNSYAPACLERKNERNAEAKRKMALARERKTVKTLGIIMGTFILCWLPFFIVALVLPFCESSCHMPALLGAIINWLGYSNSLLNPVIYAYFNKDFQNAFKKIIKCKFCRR

Cytochrome P450 1A2 = molecular target: T4, Cytochrome P450 1A2 (Homo sapiens, UniProt P05177); settings: bti-tn-5b1-4
T4 sequence (P05177 whole entry): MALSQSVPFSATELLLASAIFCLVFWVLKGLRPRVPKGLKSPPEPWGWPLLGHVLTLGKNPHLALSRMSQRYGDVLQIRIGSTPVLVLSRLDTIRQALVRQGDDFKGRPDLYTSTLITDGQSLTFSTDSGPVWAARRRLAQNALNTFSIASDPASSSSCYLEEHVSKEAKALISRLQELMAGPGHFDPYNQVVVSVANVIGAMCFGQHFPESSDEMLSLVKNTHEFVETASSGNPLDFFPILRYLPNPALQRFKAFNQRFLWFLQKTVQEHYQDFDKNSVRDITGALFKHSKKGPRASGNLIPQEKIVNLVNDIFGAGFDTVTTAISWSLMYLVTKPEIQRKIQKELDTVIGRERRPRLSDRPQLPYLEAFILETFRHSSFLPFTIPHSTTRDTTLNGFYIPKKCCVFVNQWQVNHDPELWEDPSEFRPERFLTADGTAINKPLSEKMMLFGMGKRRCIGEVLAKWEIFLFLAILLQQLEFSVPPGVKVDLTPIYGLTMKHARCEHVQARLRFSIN

[6] = molecular target: Voltage-gated inwardly rectifying potassium channel KCNH2 (Homo sapiens, UniProt Q12809); settings: hek293
Further: in other assays of this panel Not Active means under 50% inhibition at 10 µM.

Chain of Voltage-gated inwardly rectifying potassium channel KCNH2 (Q12809 whole entry): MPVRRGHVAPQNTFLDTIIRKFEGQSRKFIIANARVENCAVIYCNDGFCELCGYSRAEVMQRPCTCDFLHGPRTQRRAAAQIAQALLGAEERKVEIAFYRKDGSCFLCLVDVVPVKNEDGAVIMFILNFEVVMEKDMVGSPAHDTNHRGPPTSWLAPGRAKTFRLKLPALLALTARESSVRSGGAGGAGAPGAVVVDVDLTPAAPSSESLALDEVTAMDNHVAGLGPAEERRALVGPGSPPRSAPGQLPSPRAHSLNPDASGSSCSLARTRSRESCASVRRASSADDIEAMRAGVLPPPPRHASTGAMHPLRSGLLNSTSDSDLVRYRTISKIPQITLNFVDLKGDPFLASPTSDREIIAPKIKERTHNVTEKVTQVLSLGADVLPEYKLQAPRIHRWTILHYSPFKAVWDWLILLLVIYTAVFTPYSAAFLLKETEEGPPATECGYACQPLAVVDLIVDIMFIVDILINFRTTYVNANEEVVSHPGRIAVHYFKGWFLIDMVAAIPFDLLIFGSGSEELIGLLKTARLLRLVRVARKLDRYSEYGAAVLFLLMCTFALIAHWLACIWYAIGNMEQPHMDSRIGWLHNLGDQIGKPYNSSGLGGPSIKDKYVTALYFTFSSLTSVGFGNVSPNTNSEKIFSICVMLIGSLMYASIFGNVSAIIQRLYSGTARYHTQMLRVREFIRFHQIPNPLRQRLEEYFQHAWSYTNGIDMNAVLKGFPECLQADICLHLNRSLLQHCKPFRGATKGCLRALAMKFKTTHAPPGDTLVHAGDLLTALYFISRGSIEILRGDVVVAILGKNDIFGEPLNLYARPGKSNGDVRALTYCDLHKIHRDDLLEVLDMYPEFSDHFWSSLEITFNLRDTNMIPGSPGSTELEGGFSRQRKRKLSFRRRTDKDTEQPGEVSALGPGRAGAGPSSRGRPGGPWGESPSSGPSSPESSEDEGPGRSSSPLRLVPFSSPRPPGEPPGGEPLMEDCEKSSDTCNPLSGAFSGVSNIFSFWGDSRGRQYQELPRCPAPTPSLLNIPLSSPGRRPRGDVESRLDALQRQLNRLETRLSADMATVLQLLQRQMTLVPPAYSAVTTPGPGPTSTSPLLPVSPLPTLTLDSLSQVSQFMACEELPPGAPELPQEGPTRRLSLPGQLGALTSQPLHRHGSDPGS
Chain of 5-hydroxytryptamine receptor 2B (P41595 whole entry): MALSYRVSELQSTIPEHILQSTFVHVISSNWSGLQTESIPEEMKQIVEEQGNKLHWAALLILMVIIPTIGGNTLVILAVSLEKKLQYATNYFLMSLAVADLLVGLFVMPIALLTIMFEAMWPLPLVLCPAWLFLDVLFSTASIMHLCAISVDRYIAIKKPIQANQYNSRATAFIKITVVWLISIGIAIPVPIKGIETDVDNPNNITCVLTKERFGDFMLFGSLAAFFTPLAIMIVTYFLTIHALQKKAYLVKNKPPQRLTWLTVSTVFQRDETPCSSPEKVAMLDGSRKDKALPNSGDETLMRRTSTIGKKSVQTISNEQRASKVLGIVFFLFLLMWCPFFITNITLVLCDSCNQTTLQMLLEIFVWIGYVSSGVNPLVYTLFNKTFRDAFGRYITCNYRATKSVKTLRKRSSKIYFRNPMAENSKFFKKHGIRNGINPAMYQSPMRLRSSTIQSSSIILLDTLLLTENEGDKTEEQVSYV
Chain of Matrix metalloproteinase-9 (P14780 whole entry): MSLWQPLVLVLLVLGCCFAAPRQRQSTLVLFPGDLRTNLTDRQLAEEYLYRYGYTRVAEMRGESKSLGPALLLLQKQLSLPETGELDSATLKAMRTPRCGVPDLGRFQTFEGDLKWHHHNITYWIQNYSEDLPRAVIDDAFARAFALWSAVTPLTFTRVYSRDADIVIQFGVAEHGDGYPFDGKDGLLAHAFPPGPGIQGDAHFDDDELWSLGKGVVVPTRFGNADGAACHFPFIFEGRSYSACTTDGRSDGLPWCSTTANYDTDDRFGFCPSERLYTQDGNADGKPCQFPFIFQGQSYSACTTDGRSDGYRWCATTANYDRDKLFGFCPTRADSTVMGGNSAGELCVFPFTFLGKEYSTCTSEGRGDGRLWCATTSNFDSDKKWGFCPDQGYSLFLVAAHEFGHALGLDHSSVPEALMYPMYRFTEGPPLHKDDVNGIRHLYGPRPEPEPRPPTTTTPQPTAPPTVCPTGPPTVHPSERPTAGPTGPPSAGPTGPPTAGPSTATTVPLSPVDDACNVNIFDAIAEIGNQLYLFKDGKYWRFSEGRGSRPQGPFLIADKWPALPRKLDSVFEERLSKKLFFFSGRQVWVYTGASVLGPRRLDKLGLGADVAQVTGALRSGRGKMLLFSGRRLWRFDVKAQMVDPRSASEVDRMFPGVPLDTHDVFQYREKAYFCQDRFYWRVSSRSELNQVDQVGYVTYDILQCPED

CC(CCc1ccc(O)cc1)NCCc1ccc(O)c(O)c1 (stereo unspecified) [DOBUTAMINE]
Not Active: IC50 [1] | IC50 [2] | IC50 [3] | IC50 [4] | IC50 [5] | IC50 (Cytochrome P450 1A2) | Ki (Cytochrome P450 1A2) | IC50 [6] | Ki [6]

CCn1cc(C(=O)O)c(=O)c2cc(F)c(N3CCNCC3)nc21 [ENOXACIN]
Not Active: IC50 [1] | IC50 [2] | IC50 [3] | IC50 [4] | IC50 [5] | IC50 (Cytochrome P450 1A2) | Ki (Cytochrome P450 1A2) | IC50 [6] | Ki [6]

CCC(=O)O[C@H]1[C@H](O[C@@H]2[C@@H](C)[C@H](O[C@H]3C[C@@](C)(OC)[C@@H](O)[C@H](C)O3)[C@@H](C)C(=O)O[C@H](CC)[C@@](C)(O)[C@H](O)[C@@H](C)C(=O)[C@H](C)C[C@@]2(C)O)O[C@H](C)C[C@@H]1N(C)C [ERYTHROMYCIN PROPIONATE]
Not Active: IC50 [1] | IC50 [2] | IC50 [3] | IC50 [4] | IC50 [5] | IC50 (Cytochrome P450 1A2) | Ki (Cytochrome P450 1A2) | IC50 [6] | Ki [6]

C=C(CC)C(=O)c1ccc(OCC(=O)O)c(Cl)c1Cl [ETHACRYNIC ACID]
Not Active: IC50 [1] | IC50 [2] | IC50 [3] | IC50 [4] | IC50 [5] | IC50 (Cytochrome P450 1A2) | Ki (Cytochrome P450 1A2) | IC50 [6] | Ki [6]

C#C[C@]1(O)CC[C@H]2[C@@H]3CCc4cc(O)ccc4[C@H]3CC[C@@]21C [ETHINYL ESTRADIOL]
Not Active: IC50 [1] | IC50 [2] | IC50 [3] | IC50 [4] | IC50 [5] | IC50 (Cytochrome P450 1A2) | Ki (Cytochrome P450 1A2) | IC50 [6] | Ki [6]

OCCO [ETHYLENE GLYCOL]
Not Active: IC50 [1] | IC50 [2] | IC50 [3] | IC50 [4] | IC50 [5] | IC50 (Cytochrome P450 1A2) | Ki (Cytochrome P450 1A2) | IC50 [6] | Ki [6]

CC(=O)OCC(CCn1cnc2cnc(N)nc21)COC(C)=O [FAMCICLOVIR]
Not Active: IC50 [1] | IC50 [2] | IC50 [3] | IC50 [4] | IC50 [5] | IC50 (Cytochrome P450 1A2) | Ki (Cytochrome P450 1A2) | IC50 [6] | Ki [6]

O=C(O)Cc1ccc(-c2ccccc2)cc1 [FELBINAC]
Not Active: IC50 [1] | IC50 [2] | IC50 [3] | IC50 [4] | IC50 [5] | IC50 (Cytochrome P450 1A2) | Ki (Cytochrome P450 1A2) | IC50 [6] | Ki [6]

CC(C(=O)O)c1ccc(-c2ccccc2)c(F)c1 (stereo unspecified) [FLURBIPROFEN]
Not Active: IC50 [1] | IC50 [2] | IC50 [3] | IC50 [4] | IC50 [5] | IC50 (Cytochrome P450 1A2) | Ki (Cytochrome P450 1A2) | IC50 [6] | Ki [6]
